assay: Solubility in polyvinylphenol/tetramethylammonium hydroxide (TMAH) aqueous solution; format: physicochemical; conditions: mass ratio of compound to polyvinylphenol in saturated solution; polyvinylphenol in 3% TMAH aqueous solution; visual check, left to stand one day
Experimental: In a screw-top tube were put 0.36 g of polyvinylphenol (S-2P from Maruzen Petrochemical Co., Ltd.; Mw: 5800) and 10.00 g of a 3% TMAH aqueous solution and heated to dissolve. A 2.00 g portion of the resulting solution was put in another screw-top tube, and a small amount of each of the trifluoromethanesulfonate of each of compound Nos. 1 and 5 and comparative compound No. 1 (intermediate No. 4 obtained in step 1 of Example 1-4) was added thereto and heated. A visual check was made to see whether the compound dissolved. This operation was repeated until saturation. The saturated solution was allowed to stand one day to make sure that no solid precipitated. The mass ratio of each compound to the polyvinylphenol of the saturated solution was taken as a parameter of solubility.

Solubility (%)	SMILES
70%	O=C(c1ccccc1)c1ccc(Sc2ccc([S+](c3ccc(O)cc3)c3ccc(O)cc3)cc2)c(F)c1
28%	O=C(c1ccc(O)cc1)c1ccc(Sc2ccc([S+](c3ccc(F)cc3)c3ccc(F)cc3)cc2)c(F)c1
< 1%	O=C(c1ccccc1)c1ccc(Sc2ccc([S+](c3ccc(F)cc3)c3ccc(F)cc3)cc2)c(F)c1 [Comp. Compound No. 1, reference compound]

Reference: patent US20120130117A1, “AROMATIC SULFONIUM SALT COMPOUND” (ADEKA CORPORATION, priority 2009, published 2012)
